In patent US10940118B2, “Nanoparticles and methods of producing the same” (THE BOARD OF TRUSTEES OF THE UNIVERSITY OF ILLINOIS, priority 2013, dated 2021):

What was measured:
[1] = test system: ICR mice; test: Hot plate test, acute morphine tolerance; type: in vivo; conditions: oral administration following subcutaneous injection of morphine
Protocol: For assessment of response latencies to thermal stimulus in mice, a Cold/Hot Plate Analgesia Meter (Ugo Basile, Comerio, Italy) was used. In this study, mice were placed on a hot plate that was thermostatically maintained at 55±1° C. The nociceptive response was evaluated as the latency to the first licking or lifting of the rear paws or escape jumping. Mice were removed from the hot plate immediately after displaying the response and a cut-off time of 30 sec was set to prevent tissue damage. The anti-nociceptive effect was measured using the same percentage of maximal possible effect (% MPE) as above.
(§1) To induce acute tolerance and dependence, separate groups of three ICR mice (20-25 g) were treated with a large dose of morphine (100 mg/kg s.c.). Maximal morphine tolerance and dependence peaked at approximately 4 to 6 h. Mice in the control group received an equal volume of saline. Tolerance to opioids was assessed 4.5 h later by monitoring the antinociceptive effect produced by a test dose of morphine (10 mg/kg, s.c.). The presence of opioid tolerance was signified by a significant reduction of antinociceptive effect. To examine dependence on opioids, mice were challenged with naloxone (10 mg/kg i.p.) 5h after the administration of morphine (100 mg/kg s.c.). Mice were immediately placed inside glass cylinders, and naloxone-induced vertical jumps were recorded for 15 min. […]

[2] = test system: ICR mice; test: 52° C. warm-water tail-flick test, acute morphine tolerance; type: in vivo; conditions: oral administration following subcutaneous injection of morphine
Protocol: Basal nociception and morphine-induced antinociception were studied using the 52° C. warm-water tail-flick test. In brief, mice were held over the water bath and one third of the distal portion of the tail was immersed into the water. The latency to a quick tail-flick response was recorded as a base-line measurement. Any mouse not responding within 5 sec was excluded from further experiment. To prevent tissue damage, a cut-off time of 12 sec was applied. Morphine-induced antinociception was evaluated 30 min after the injection of a testing dose of morphine (10 mg/kg s.c.), and expressed as the percentage of maximal possible effect (% MPE) according to the following formula: % MPE=100×(postdrug latency−predrug latency)/(cut off−predrug latency)
as §1, with “To examine dependence on opioids, mice were challenged with naloxone (10 mg/kg i.p.) 5h after the administration of morphine (100 mg/kg s.c.).” left out

`COc1cc(C=CC(=O)CC(=O)C=Cc2ccc(O)c(OC)c2)ccc1O` [unformulated curcumin, 1,7-bis-(4-hydroxy-3-methoxyphenyl)-1,6-heptadiene-3,5-dione] was tested. Which “Analgesia in hot plate test” value [1] did it give?
Its value is “minimal effect”.

What about the “Analgesia in tail-flick test” value [2] of the same compound?
Its value is “minimal effect”.
